According to BigSolDB 2.1:

O=C(/C=C/C=C/c1ccc2c(c1)OCO2)N1CCCCC1
solubility (mole fraction)
Settings | 298.2 K | 303.2 K | 308.2 K | 313.2 K | 318.2 K
in DMSO | 0.0287 | 0.0303 | 0.0321 | 0.0339 | 0.0359
in ethanol | 0.00899 | 0.01 | 0.011 | 0.012 | 0.0134
in ethyl acetate | 0.00985 | 0.011 | 0.0123 | 0.0137 | 0.0154
in ethylene glycol | 0.00386 | 0.00444 | 0.00515 | 0.00597 | 0.0067
in isopropanol | 0.0123 | 0.0136 | 0.0149 | 0.0164 | 0.0182
in methanol | 0.00527 | 0.00584 | 0.00648 | 0.00719 | 0.00791
in n-butanol | 0.0156 | 0.0169 | 0.0183 | 0.0201 | 0.022
in propylene glycol | 0.01 | 0.0111 | 0.0122 | 0.0134 | 0.0147
in sec-butanol | 0.0158 | 0.017 | 0.0187 | 0.0206 | 0.0225
in transcutol | 0.0797 | 0.0826 | 0.0852 | 0.0883 | 0.0917
in water | 1.07e-05 | 1.18e-05 | 1.29e-05 | 1.41e-05 | 1.52e-05

Settings | solubility (mole fraction)
in PEG-400, 298.2 K | 0.0518
in PEG-400, 303.2 K | 0.0584
in PEG-400, 308.2 K | 0.0652
in PEG-400, 313.2 K | 0.0718
in PEG-400, 318.2 K | 0.0788
